Assays:
[1] = system: murine L1210 leukemia cell; experiment: Antitumor effect on murine L1210 leukemia cell (increase in life-span of inoculated mice); type: in vivo, murine; male CDF1 mice; details: for ILSmax (maximum percent increase in life-span) / ILS50 (dose which shows 50% of the ILS value by 5 administrations) / dose corresponding to ILSmax: L1210, i.p. once a day for 5 days; for ILSmax (maximum percent increase in life-span): 30 days observation; for ILS50 (dose which shows 50% of the ILS value by 5 administrations): linear regression; for TI (therapeutic index, LD50 value/ILS50 value): L1210
Description: (§1) Murine L1210 leukemia cells (1×10^5 cells) were inoculated peritoneally into six-week-old male CDF1 mice on day 0. From the next day after the inoculation, a drug (the compound of the invention or a compound for comparison) was administered peritoneally once a day for 5 days. After 30 days of observation, the percent increase in life-span (ILS) was calculated as follows: […]
(§2) T: mean survival days of the drug-treated group
(§3) C: mean survival days of control group
(§4) In these tables, ILSmax means maximum ILS value (%), and corresponding dose (mg/kg) is Shown in parenthesis.

[2] = system: cisplatin-resistant murine L1210 leukemia cell (L1210/DDP); experiment: Antitumor effect on cisplatin-resistant murine L1210 leukemia cell (L1210/DDP); type: in vivo, murine; male CDF1 mice; details: for ILSmax (maximum percent increase in life-span) / dose corresponding to ILSmax / ILS50 (dose which shows 50% of the ILS value by 5 administrations): i.p. once a day for 5 days; for ILSmax (maximum percent increase in life-span): 30 days observation; for ILS50 (dose which shows 50% of the ILS value by 5 administrations): linear regression
Description: as §1, §2, §3
In these tables, ILSmax means maximum ILS value (%), and corresponding dose (mg/kg) is Shown in parenthesis. In this test, cisplatin and carboplatin were respectively tested in each test lot for accurate comparison.
Antitumor effect on cisplatin-resistant murine L1210 leukemia cell (L1210/DDP):
The test of Test Example 1 was repeated except that cisplatin-resistant murine L1210 leukemia cell (L1210/DDP) was used instead of murine L1210 leukemia cell.

[3] = system: murine P388 leukemia cell; experiment: Antitumor effect on murine P388 leukemia cell; type: in vivo, murine; male CDF1 mice; details: for ILSmax (maximum percent increase in life-span) / ILS50 (dose which shows 50% of the ILS value by 5 administrations) / dose corresponding to ILSmax: P388, i.p. once a day for 5 days; for ILSmax (maximum percent increase in life-span): 30 days observation; for ILS50 (dose which shows 50% of the ILS value by 5 administrations): linear regression; for TI (therapeutic index, LD50 value/ILS50 value): P388
Description: as §1, §2, §3, §4
Antitumor effect on murine P388 leukemia cell:
The test of Test Example 1 was repeated except that 1×10^6 of murine P388 leukemia cells were used instead of 1×10^5 of murine L1210 leukemia cells.

[4] = 50% lethal dose by single peritoneal administration, obtained at the time of the dose setting; type: in vivo, CDF1 mice
From the text: as §4

Compound	ILSmax (maximum percent increase in life-span) ([1]; Table 5 test lot) [%]	ILS50 (dose which shows 50% of the ILS value by 5 administrations) ([1]; Table 5 test lot) [mg/kg]	dose corresponding to ILSmax ([1]; Table 5 test lot) [mg/kg]	TI (therapeutic index, LD50 value/ILS50 value) ([1]; Table 5 test lot)	TI (therapeutic index, LD50 value/ILS50 value) ([2]; Table 7 test lot)	ILSmax (maximum percent increase in life-span) ([2]; Table 7 test lot) [%]	dose corresponding to ILSmax ([2]; Table 7 test lot) [mg/kg]	ILS50 (dose which shows 50% of the ILS value by 5 administrations) ([2]; Table 7 test lot) [mg/kg]	LD50 (50% lethal dose) [4] [mg/kg]	ILSmax (maximum percent increase in life-span) ([3]; Table 10 test lot) [%]	ILS50 (dose which shows 50% of the ILS value by 5 administrations) ([3]; Table 10 test lot) [mg/kg]	dose corresponding to ILSmax ([3]; Table 10 test lot) [mg/kg]	TI (therapeutic index, LD50 value/ILS50 value) ([3]; Table 10 test lot)	ILSmax (maximum percent increase in life-span) ([3]; Table 8 test lot) [%]	ILS50 (dose which shows 50% of the ILS value by 5 administrations) ([3]; Table 8 test lot) [mg/kg]	dose corresponding to ILSmax ([3]; Table 8 test lot) [mg/kg]	TI (therapeutic index, LD50 value/ILS50 value) ([3]; Table 8 test lot)	also measured
CC(C)(C)ON.N.[Cl][Pt][Cl] [Compound No. 7, cis-dichloroammine (O-tert-butylhydroxylamine)platinum(II)]	> 181.3	1.5	8.0	14.7	> 22.1	> 206.1	1.0	< 1.0	22.1									ILSmax (maximum percent increase in life-span) ([3]; Table 9 test lot): 92.3%; ILS50 (dose which shows 50% of the ILS value by 5 administrations) ([3]; Table 9 test lot): < 1.0 mg/kg; dose corresponding to ILSmax ([3]; Table 9 test lot): 2.0 mg/kg; TI (therapeutic index, LD50 value/ILS50 value) ([3]; Table 9 test lot): > 22.1
CC(C)(C)O[NH][Pt]1([NH2])[O]C(=O)C2(CCC2)C(=O)[O]1 [Compound No. 17, (1,1-cyclobutane dicarboxylate)ammine (O-tert-butylhydroxylamine)platinum(II)]									250.0	72.7	12.4	32.0	20.2					
CNO.N.[Cl][Pt][Cl] [Compound No. 1, cis-dichloroammine (N-methylhydroxylamine)platinum(II)]									15.6					> 136.1	< 0.5	4.0	> 31.2	
N.NC1CCCCC1.[Cl][Pt][Cl] [Comparative drug A, cis-dichloroammine cyclohexylamineplatinum(II), reference compound]									31.3					101.9	< 1.0	4.0	> 31.3	ILSmax (maximum percent increase in life-span) ([1]; Table 4 test lot): 97.6%; ILS50 (dose which shows 50% of the ILS value by 5 administrations) ([1]; Table 4 test lot): < 1.0 mg/kg; dose corresponding to ILSmax ([1]; Table 4 test lot): 8.0 mg/kg; TI (therapeutic index, LD50 value/ILS50 value) ([1]; Table 4 test lot): > 31.3; TI (therapeutic index, LD50 value/ILS50 value) ([2]; Table 6 test lot): > 31.3; ILSmax (maximum percent increase in life-span) ([2]; Table 6 test lot): > 157.5%; dose corresponding to ILSmax ([2]; Table 6 test lot): 1.0 mg/kg; ILS50 (dose which shows 50% of the ILS value by 5 administrations) ([2]; Table 6 test lot): < 1.0 mg/kg
CCO[NH][Pt]([Cl])([Cl])[NH]C(C)C [Compound No. 12, cis-dichloro(isopropylamine) (O-ethylhydroxylamine)platinum(II)]	102.5	1.5	8.0	14.7	> 22.1	> 206.1	2.0	< 1.0	22.1									
CCON.N.O=C1[O][Pt][O]C(=O)C12CCC2 [Compound No. 15, (1,1-cyclobutane dicarboxylate)ammine (O-ethylhydroxylamine)platinum(II)]									176.8	93.6	8.2	32.0	21.6					
